Measured values taken from US11208396B2, “Oxime compounds as agonists of the muscarinic M1 and/or M4 receptor” (Heptares Therapeutics Limited, priority 2015, dated 2021).

Assays:
Type in all cases: cell-based
[1] = target: T1, human muscarinic M1 receptor (Homo sapiens, UniProt P11229); assay: Alphascreen Surefire phospho-ERK1/2 functional assay, M1; conditions: for EC50: read-out: pEC50 M1 (converted); for Emax: CHO, read-out: % Emax cf. ACh, M1, CHO cells stably expressing human M1; for Emax / % Emax cf. ACh, M1: Emax compared with ACh
T1 sequence (P11229 1-460): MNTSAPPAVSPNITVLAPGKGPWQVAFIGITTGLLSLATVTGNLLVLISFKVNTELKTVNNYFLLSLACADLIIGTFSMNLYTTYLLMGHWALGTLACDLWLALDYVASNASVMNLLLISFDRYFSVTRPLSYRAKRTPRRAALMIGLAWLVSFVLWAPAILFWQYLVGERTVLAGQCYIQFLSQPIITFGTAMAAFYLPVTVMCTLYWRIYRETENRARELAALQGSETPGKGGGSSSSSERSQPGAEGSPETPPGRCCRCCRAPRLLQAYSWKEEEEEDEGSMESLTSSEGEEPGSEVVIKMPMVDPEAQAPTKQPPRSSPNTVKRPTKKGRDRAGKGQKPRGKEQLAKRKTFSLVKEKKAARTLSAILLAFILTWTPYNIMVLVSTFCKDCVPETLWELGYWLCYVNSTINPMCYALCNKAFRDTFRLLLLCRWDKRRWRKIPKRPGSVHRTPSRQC
Description: (§1) ERK1/2 phosphorylation is a downstream consequence of both Gq/11 and Gi/o protein coupled receptor activation, making it highly suitable for the assessment of M1, M3 (Gq/11 coupled) and M2, M4 receptors (Gi/o coupled), rather than using different assay formats for different receptor subtypes. CHO cells stably expressing the human muscarinic M1, M2, M3 or M4 receptor were plated (25K/well) onto 96-well tissue culture plates in MEM-alpha+10% dialysed FBS. Once adhered, cells were serum-starved overnight. Agonist stimulation was performed by the addition of 5 μL agonist to the cells for 5 min (37° C.). Media was removed and 50 μL of lysis buffer added. After 15 min, a 4 μL sample was transferred to 384-well plate and 7 μL of detection mixture added. Plates were incubated for 2 h with gentle agitation in the dark and then read on a PHERAstar plate reader.
(§2) pEC50 and Emax figures were calculated from the resulting data for each receptor subtype.

[2] = target: T2, human muscarinic M3 receptor (Homo sapiens, UniProt P20309); assay: Alphascreen Surefire phospho-ERK1/2 functional assay, M3; conditions: for EC50: agonist 5 min, 37° C., read-out: pEC50 M3 (converted); for Emax: CHO, read-out: % Emax cf. ACh, M3, CHO cells stably expressing human M3
T2 construct: expressed in transfected cells
T2 sequence (P20309 whole entry): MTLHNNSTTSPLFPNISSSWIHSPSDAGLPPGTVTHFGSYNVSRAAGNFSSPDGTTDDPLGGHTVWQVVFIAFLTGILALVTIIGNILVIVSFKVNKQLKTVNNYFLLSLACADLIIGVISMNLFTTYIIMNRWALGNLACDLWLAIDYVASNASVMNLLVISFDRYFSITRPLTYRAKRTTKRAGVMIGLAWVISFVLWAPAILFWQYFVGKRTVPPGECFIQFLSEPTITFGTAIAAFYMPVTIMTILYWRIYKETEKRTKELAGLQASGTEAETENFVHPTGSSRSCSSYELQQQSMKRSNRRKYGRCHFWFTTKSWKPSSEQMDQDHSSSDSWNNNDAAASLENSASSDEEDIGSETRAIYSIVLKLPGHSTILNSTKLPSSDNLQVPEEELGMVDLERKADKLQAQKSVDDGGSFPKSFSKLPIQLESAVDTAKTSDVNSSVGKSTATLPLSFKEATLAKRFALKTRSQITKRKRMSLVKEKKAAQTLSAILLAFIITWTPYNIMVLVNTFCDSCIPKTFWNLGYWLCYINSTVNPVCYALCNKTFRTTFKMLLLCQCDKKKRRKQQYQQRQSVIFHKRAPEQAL
Description: as §1, §2

[3] = target: T3, human muscarinic M4 receptor (Homo sapiens, UniProt P08173); assay: Alphascreen Surefire phospho-ERK1/2 functional assay, M4; conditions: for EC50 / % Emax cf. ACh, M4: CHO cells stably expressing human M4; for EC50: agonist 5 min, 37° C., read-out: pEC50 M4 (converted); for Emax: CHO, read-out: % Emax cf. ACh, M4, CHO cells stably expressing human M4; for Emax / % Emax cf. ACh, M4: Emax compared with ACh
T3 construct: expressed in transfected cells
T3 sequence (P08173 1-479): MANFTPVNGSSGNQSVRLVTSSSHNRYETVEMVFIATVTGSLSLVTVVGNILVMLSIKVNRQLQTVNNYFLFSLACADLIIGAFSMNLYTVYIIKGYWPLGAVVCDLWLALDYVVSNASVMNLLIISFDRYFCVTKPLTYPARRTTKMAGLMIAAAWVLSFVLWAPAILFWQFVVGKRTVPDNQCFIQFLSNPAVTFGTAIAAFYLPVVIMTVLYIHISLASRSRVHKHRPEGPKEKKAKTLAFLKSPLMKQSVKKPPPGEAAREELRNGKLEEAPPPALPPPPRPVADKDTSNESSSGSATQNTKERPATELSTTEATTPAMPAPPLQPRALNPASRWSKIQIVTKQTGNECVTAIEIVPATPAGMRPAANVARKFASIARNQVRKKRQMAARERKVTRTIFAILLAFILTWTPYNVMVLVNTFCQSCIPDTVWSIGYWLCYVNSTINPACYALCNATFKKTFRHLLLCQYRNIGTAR
Description: as §1, §2

[4] = target: T4, human muscarinic M2 receptor (Homo sapiens, UniProt P08172); assay: Alphascreen Surefire phospho-ERK1/2 functional assay, M2; conditions: for EC50: agonist 5 min, 37° C., read-out: pEC50 M2 (converted); for Emax: CHO, read-out: % Emax cf. ACh, M2, CHO cells stably expressing human M2
T4 sequence (P08172 1-466): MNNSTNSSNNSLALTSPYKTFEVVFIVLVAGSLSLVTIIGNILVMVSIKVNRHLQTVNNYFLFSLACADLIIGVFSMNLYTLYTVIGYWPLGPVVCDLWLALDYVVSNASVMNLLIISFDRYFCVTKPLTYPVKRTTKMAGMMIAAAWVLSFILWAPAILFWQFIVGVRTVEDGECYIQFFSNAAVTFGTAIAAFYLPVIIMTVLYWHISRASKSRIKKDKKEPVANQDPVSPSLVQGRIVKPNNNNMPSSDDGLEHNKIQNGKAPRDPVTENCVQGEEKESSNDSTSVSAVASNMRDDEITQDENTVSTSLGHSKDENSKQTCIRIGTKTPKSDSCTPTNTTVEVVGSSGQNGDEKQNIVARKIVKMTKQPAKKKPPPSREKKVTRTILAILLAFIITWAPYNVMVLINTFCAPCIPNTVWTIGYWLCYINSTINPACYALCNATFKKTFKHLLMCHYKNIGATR
Description: as §1, §2

[5] = CHO cells stably expressing human M1, agonist 5 min, 37° C.
[6] = CHO cells stably expressing human M3
[7] = CHO cells stably expressing human M2
[8] = CHO cells stably expressing human M1

| EC50 [1, 5] [nM] | Emax [1] [%] | EC50 [2, 6] [µM] | Emax ([2]; Emax compared with ACh) [%] | EC50 [3] [nM] | Emax [3] [%] | EC50 [4, 7] [µM] | Emax ([4]; Emax compared with ACh) [%] | % Emax cf. ACh, M1 [1, 8] [%] | % Emax cf. ACh, M3 ([2]; CHO cells stably expressing human M3, Emax compared with ACh) [%] | % Emax cf. ACh, M2 ([4]; CHO cells stably expressing human M2, Emax compared with ACh) [%] | % Emax cf. ACh, M4 [3] [%] | pEC50 M1 [1, 5] | Compound |
| --- | --- | --- | --- | --- | --- | --- | --- | --- | --- | --- | --- | --- | --- |
| > 20000 | 22 | > 20 | 5 | 20 | 93 | > 20 | 7 |  |  |  |  |  | CCCC(=NOC)C1CCN(C2CC3(CCN(C(=O)OCC)C3)C2)CC1 (mixture of isomers) [2-3 Mixture of two isomers] |
| 100 | 109 | > 20 | 5 | 79.4 | 72 | > 20 | 4 |  |  |  |  |  | CCOC(=O)N1CCCC(N2CCC(C(C#N)=NOC(C)C)CC2)CC1 (mixture of isomers) [4-1 Mixture of isomers] |
| 251 | 136 |  |  | 398 | 56 |  |  |  |  |  |  |  | CCOC(=O)N1CCCC(N2CCC(C(=NOC)NCC(C)C)CC2)CC1 (racemic) [3-1 Mixture of isomers] |
| 251 | 107 |  |  | 126 |  |  |  |  |  |  | 72 |  | CCCON=C(CC)C1CCN(C2CCCN(C(=O)OCC)CC2)CC1 (single isomer, unassigned) [1-11 Isomer 1 (racemic)] |
| 631 | 47 |  |  | 200 |  |  |  |  |  |  | 31 |  | CCOC(=O)N1CCC[C@H](N2CCC(C(C)=NOC)CC2)CC1 (single isomer, unassigned) [(S)-1-1 Isomer 1] |

More lines, now with the values behind:

| Compound | EC50 [1, 5] [nM] | Emax [1] [%] | EC50 [2, 6] [µM] | Emax ([2]; Emax compared with ACh) [%] | EC50 [3] [nM] | Emax [3] [%] | EC50 [4, 7] [µM] | Emax ([4]; Emax compared with ACh) [%] | % Emax cf. ACh, M1 [1, 8] [%] | % Emax cf. ACh, M3 ([2]; CHO cells stably expressing human M3, Emax compared with ACh) [%] | % Emax cf. ACh, M2 ([4]; CHO cells stably expressing human M2, Emax compared with ACh) [%] | % Emax cf. ACh, M4 [3] [%] | pEC50 M1 [1, 5] |
| --- | --- | --- | --- | --- | --- | --- | --- | --- | --- | --- | --- | --- | --- |
| CCOC(=O)N1CCCC(N2CCC(C(C)=NOC)CC2)CC1 (single isomer, unassigned) [1-1 Isomer 2 (racemic)] | 1580 | 54 | > 20 | 1 | 126 | 71 | > 20 | 4 |  |  |  |  |  |
| CCOC(=O)N1CCCC(N2CCC(C(CC)=NOC)CC2)CC1 (single isomer, unassigned) [1-2 Isomer 1 (racemic)] | 501 |  | > 20 |  | 79.4 | 99 | > 20 |  | 58 | 37 | 2 |  |  |
| CCCC(=NOC)C1CCN(C2CCCN(C(=O)OCC)CC2)CC1 (single isomer, unassigned) [1-3 Isomer 1 (racemic)] | 316 | 106 |  |  | 25.1 | 85 |  |  |  |  |  |  |  |
| CCON=C(C)C1CCN(C2CCCN(C(=O)OCC)CC2)CC1 (single isomer, unassigned) [1-7 Isomer 1 (racemic)] | 631 | 48 |  |  | 631 | 52 |  |  |  |  |  |  |  |
| CCON=C(C)C1CCN(C2CCCN(C(=O)OCC)CC2)CC1 (single isomer, unassigned) [1-7 Isomer 2 (racemic)] | 501 |  |  |  | 251 |  |  |  | 66 |  |  | 62 |  |
| CCCON=C(C)C1CCN(C2CCCN(C(=O)OCC)CC2)CC1 (single isomer, unassigned) [1-8 Isomer 1 (racemic)] | 794 | 65 |  |  | 794 | 46 |  |  |  |  |  |  |  |
| CCCON=C(C)C1CCN(C2CCCN(C(=O)OCC)CC2)CC1 (single isomer, unassigned) [1-8 Isomer 2 (racemic)] | 316 |  |  |  | 316 |  |  |  | 85 |  |  | 50 |  |
| CCOC(=O)N1CCCC(N2CCC(C(C)=NOC(C)C)CC2)CC1 (single isomer, unassigned) [1-9 Isomer 1 (racemic)] | 631 | 57 |  |  | > 20000 |  |  |  |  |  |  | 0 |  |
| CCOC(=O)N1CCCC(N2CCC(C(C)=NOC(C)C)CC2)CC1 (single isomer, unassigned) [1-9 Isomer 2 (racemic)] |  |  |  |  | 398 |  |  |  | 46 |  |  | 81 | 6.2 |
